The record followed here is patent US20230192701A1, “BICYCLIC KINASE INHIBITORS AND USES THEREOF” (iOmx Therapeutics AG, priority 2020, published 2023).

The test system of one series is PANC1 tumour cells. The series can be described thus: TNF-sensitised cell viability assay (CellTiter-Glo), PANC1. The class given is cell-based, human. The settings on record: for IC50: Homo sapiens, PANC-1, read-out: PANC IC50 (at 100 ng/ml rHuTNF), 100 ng/ml rHuTNF, 72 h; for sensitisation of PANC tumour cells to the cytotoxic effects of TNF compared to PY1: in words. The procedure:
(§1) Cell viability of HCT116 tumour cells was measured using the CellTiter-Glo (CTG) luminescent cell viability assay (Promega, Madison, USA) according to the manufacturer's protocol. In short, 1×10^3 HCT116 cells were seeded in a 384-well plate for 24 h and subsequently treated with different concentrations of compounds and 10 ng/ml rHuTNF for 72 h at 37° C. and 5% CO2. After incubation, CTG reagent was added to the wells and cells were lysed for 10 min. Read-out was performed using the Tecan reader with 0.1 sec counting time. TNF-induced cell killing in human PANC1 and murine MC38 tumour cells was measured analogously to the assay in human HCT116 cells, except that for the PANC1 assay 100 ng/ml rHuTNF and for the MC38 assay 100 ng/ml rMuTNF were used.
In general terms: ATP-based viability assays read luminescence as a measure of living cells.

The next series deals with MC38 tumour cells. The series can be described thus: TNF-sensitised cell viability assay (CellTiter-Glo), MC38. The class given is cell-based, murine. The settings on record: for IC50: Mus musculus, MC-38, read-out: MC38 IC50 (at 100 ng/ml rMuTNF), 100 ng/ml rMuTNF, 72 h. The procedure: as §1
The target in a further series is SIK3 (Homo sapiens, UniProt Q9Y2K2). Kind of series: radiometric protein kinase assay (33PanQinase Activity Assay), SIK3. The format is biochemical. The settings on record: for IC50: ATP 1.0 μM, substrate RBER-CHKtide; for selectivity towards SIK3 over SIK2 / inhibiting SIK3 compared to PY1: in words. The procedure: (§2) The IC50s of the compounds against the SIK family of protein-serine/threonine kinases (SIK2 and SIK3) were determined as followed. Briefly, a radiometric protein kinase assay (33PanQinase® Activity Assay) was used for measuring the kinase activity of the two protein kinases. The kinase assays were performed in 96-well FlashPlates™ from PerkinElmer (Boston, Mass., USA) in a 50 uL reaction volume. The reaction cocktail was pipetted in four steps in the following order: • […] (standard buffer/[gamma-33P]-ATP) • 10 uL of ATP solution (in water) • 5 uL of test compound (in 10% DMSO) • 20 uL enzyme/substrate mix
SIK3, sequence (Q9Y2K2 whole entry): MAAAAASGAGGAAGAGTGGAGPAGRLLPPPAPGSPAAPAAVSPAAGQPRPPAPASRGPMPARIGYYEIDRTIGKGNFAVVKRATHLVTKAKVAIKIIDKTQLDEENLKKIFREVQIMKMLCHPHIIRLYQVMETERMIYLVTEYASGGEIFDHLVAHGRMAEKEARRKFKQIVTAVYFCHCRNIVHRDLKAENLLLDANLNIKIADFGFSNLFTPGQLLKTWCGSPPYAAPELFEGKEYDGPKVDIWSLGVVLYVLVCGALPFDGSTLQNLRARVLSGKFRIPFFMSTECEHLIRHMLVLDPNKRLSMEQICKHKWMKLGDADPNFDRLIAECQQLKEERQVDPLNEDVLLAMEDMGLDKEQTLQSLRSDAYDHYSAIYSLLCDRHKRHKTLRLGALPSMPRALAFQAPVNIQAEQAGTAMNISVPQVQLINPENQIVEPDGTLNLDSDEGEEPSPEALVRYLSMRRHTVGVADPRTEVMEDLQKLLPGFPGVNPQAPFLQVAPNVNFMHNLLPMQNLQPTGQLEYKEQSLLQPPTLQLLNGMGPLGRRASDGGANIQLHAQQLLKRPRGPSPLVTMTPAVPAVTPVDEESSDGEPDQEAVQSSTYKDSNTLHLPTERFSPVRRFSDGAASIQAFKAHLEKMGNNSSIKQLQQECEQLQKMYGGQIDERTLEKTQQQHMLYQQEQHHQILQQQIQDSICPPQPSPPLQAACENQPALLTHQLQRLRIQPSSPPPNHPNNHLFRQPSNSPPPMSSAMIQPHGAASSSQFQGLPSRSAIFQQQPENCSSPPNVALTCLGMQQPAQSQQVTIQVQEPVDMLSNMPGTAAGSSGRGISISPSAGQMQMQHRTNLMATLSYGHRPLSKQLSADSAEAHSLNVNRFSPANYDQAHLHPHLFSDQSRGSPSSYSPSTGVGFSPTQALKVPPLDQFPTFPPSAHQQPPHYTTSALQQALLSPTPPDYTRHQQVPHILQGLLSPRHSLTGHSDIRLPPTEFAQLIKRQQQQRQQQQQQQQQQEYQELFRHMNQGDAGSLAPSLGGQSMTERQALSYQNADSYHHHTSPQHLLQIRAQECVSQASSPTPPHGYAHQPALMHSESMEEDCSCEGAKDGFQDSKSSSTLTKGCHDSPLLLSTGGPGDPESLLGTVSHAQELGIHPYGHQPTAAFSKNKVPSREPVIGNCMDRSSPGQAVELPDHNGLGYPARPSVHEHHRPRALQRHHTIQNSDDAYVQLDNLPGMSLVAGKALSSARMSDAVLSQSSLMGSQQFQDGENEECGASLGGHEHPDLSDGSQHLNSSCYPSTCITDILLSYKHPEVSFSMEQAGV
(§3) The following amounts of enzyme and applicable substrate were used per well:
(§4) The reaction cocktails were incubated at 30 °C for 60 minutes. The reaction was stopped with 50 uL of 2% (v/v) H3PO4, plates were aspirated and washed two times with 200 μL 0.9% (w/v) NaCl. Incorporation of 33Pi was determined with a microplate scintillation counter (Microbeta, Wallac). All assays were performed with a BeckmanCoulter/SAGIAN™ Core System.

A further series deals with HCT116 tumour cells. The series can be described thus: TNF-sensitised cell viability assay (CellTiter-Glo), HCT116. The format is cell-based, human. The following applies: for IC50: Homo sapiens, HCT-116, read-out: HCT116 IC50 (at 10 ng/ml rHuTNF), 10 ng/ml rHuTNF, 72 h; for sensitisation of HCT116 tumour cells to the cytotoxic effect of TNF compared to PY1: in words. The procedure: as §1

A further series has as its target SIK2 (Homo sapiens, UniProt Q9H0K1). The series can be described thus: radiometric protein kinase assay (33PanQinase Activity Assay), SIK2. The format is biochemical. The settings on record: for IC50: ATP 1.0 μM, substrate RBER-CHKtide; for inhibiting SIK2 compared to PY1: in words. How it is done: as §2, §3, §4
Series [1] deals with 335 wild-type protein kinases. Kind of series: single-point inhibition assays, residual activity (ProQinase Kinase Profiler). The class given is biochemical. The settings on record: single-point 0.1 uM and 1 uM, 335 kinases. How it is done:
Several compounds of Formula (I) described herein were also tested in single-point (0.1 uM and 1 uM) inhibition assays over a diverse set of 335 wild-type protein (ProQinase “Kinase Profiler”; ProQinase, Freiburg, Germany), in which the residual activity of each kinase was determined. […] Secondly, the residual activity of each kinase was compared to other compounds tested (in particular, against the prior art compounds PY1) by use of scatter plots.

SIK2, sequence (Q9H0K1 whole entry): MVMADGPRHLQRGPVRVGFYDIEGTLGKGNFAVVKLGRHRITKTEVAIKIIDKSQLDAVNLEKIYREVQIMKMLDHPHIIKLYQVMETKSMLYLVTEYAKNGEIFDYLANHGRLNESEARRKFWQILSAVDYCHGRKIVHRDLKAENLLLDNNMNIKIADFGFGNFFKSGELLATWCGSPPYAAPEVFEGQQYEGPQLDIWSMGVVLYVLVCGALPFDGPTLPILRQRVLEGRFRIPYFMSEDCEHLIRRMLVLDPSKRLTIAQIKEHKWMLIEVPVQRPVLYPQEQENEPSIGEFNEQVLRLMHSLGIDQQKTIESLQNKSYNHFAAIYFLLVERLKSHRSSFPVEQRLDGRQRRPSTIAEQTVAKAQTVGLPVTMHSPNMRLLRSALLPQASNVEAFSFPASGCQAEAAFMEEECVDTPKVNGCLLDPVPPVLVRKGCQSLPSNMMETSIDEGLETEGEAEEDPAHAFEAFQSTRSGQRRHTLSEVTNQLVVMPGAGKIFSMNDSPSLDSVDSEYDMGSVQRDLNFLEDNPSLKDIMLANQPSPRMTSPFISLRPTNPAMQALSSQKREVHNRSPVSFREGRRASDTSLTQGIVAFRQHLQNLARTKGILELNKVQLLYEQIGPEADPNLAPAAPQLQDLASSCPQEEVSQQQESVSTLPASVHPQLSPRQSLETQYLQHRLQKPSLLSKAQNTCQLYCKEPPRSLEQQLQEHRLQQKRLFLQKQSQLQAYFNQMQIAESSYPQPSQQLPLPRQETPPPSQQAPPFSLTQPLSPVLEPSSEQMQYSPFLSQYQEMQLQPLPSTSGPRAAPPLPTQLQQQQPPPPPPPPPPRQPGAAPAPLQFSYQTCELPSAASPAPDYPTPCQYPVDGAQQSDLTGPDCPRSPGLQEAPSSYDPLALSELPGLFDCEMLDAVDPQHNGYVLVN

Regarding `COc1cc(C2CCN(C)CC2)ccc1Nc1ncc2c(n1)N(C)C(=O)N(c1c(CF)csc1Cl)C2` [AA11, 3-(2-chloro-4-(fluoromethyl)thiophen-3-yl)-7-((2-methoxy-4-(1-methylpiperidin-4-yl)phenyl)amino)-1-methyl-3,4-dihydropyrimido[4,5-d]pyrimidin-2(1H)-one], the IC50 in the series on PANC1 tumour cells was above 1500 nM; in the series on MC38 tumour cells, 1000 to 1500 nM; on SIK3 it was below 50 nM; with HCT116 tumour cells, above 1500 nM; against SIK2 it was 100 to 200 nM. Further, at SIK3, the “selectivity towards SIK3 over SIK2” value is recorded as “increased selectively towards SIK3 over SIK2”. Further, the “kinases inhibited less strongly than by PY1” value in series [1] was “BMX, TEC and in particular BTK”. For the same compound, the “kinases inhibited more strongly than by PY1” value in series [1] is “BRAF, NEK2, PRK2, PKC, and in particular KIT, RIPK2, ABL2 and PDGF-alpha”. In series [1], the “overall kinase profile compared to prior art compound PY1” value is “substantially different profile of inhibition of the kinases compared to the prior art compound PY1”.

For the compound `COCCN1C(=O)N(c2c(CF)csc2Cl)Cc2cnc(Nc3ccc(C4CCN(C)CC4)cc3OC)nc21` [AA12, 3-(2-chloro-4-(fluoromethyl)thiophen-3-yl)-7-((2-methoxy-4-(1-methylpiperidin-4-yl)phenyl)amino)-1-(2-methoxyethyl)-3,4-dihydropyrimido[4,5-d]pyrimidin-2(1H)-one], the IC50 with MC38 tumour cells was 1000 to 1500 nM; on SIK3, below 50 nM; in the series with HCT116 tumour cells, above 1500 nM; against SIK2 it was below 50 nM. Also, at SIK3, the “inhibiting SIK3 compared to PY1” value was “superior in inhibiting SIK2 and SIK3 compared to PY1”. For the same compound, the “selectivity towards SIK3 over SIK2” value at SIK3 is “increased selectively towards SIK3 over SIK2”. At SIK2, the “inhibiting SIK2 compared to PY1” value was “superior in inhibiting SIK2 and SIK3 compared to PY1”.

`COc1ccc(N2C(=O)N(c3c(CF)csc3Cl)Cc3cnc(Nc4ccc(C5CCN(C)C(C)C5)cc4)nc32)nc1` (stereo not drawn) [AA9, 3-(2-chloro-4-(fluoromethyl)thiophen-3-yl)-7-((4-(l,2-dimethylpiperidin-4-yl)phenyl)amino)-1-(5-methoxypyridin-2-yl)-3,4-dihydropyrimido[4,5-d]pyrimidin-2(1H)-one]: the IC50 in the series on PANC1 tumour cells is 500 to 1000 nM; with MC38 tumour cells, 500 to 1000 nM; on SIK3 it was below 50 nM; in the series on HCT116 tumour cells, below 100 nM; on SIK2 it was below 50 nM. The “inhibiting SIK3 compared to PY1” value against SIK3 is “superior in inhibiting SIK2 and SIK3 compared to PY1”. The “sensitisation of HCT116 tumour cells to the cytotoxic effect of TNF compared to PY1” value with HCT116 tumour cells was “much stronger effect compared to the prior art compound PY1”. Also, the “inhibiting SIK2 compared to PY1” value against SIK2 is “superior in inhibiting SIK2 and SIK3 compared to PY1”.

For the compound `COc1ccc(N2C(=O)N(c3c(C(F)F)csc3Cl)Cc3cnc(Nc4ccc(C5CCN(C)CC5)cc4OC)nc32)nc1` [AA13, 3-(2-chloro-4-(difluoromethyl)thiophen-3-yl)-7-((2-methoxy-4-(1-methylpiperidin-4-yl)phenyl)amino)-1-(5-methoxypyridin-2-yl)-3,4-dihydropyrimido[4,5-d]pyrimidin-2(1H)-one], the IC50 in the series on PANC1 tumour cells is above 1500 nM; with MC38 tumour cells it was 1000 to 1500 nM; against SIK3 it was 100 to 200 nM; in the series with HCT116 tumour cells it was above 1500 nM; against SIK2, 100 to 200 nM. Besides, the “selectivity towards SIK3 over SIK2” value on SIK3 is recorded as “increased selectively towards SIK3 over SIK2”.

Consider `COc1ccc(N2C(=O)N(c3c(CF)csc3Cl)Cc3cnc(Nc4ccc(C5CCN(C)CC5)cc4OC)nc32)nc1` [AA7, 3-(2-chloro-4-(fluoromethyl)thiophen-3-yl)-7-((2-methoxy-4-(l-methylpiperidin-4-yl)phenyl)amino)-1-(5-methoxypyridin-2-yl)-3,4-dihydropyrimido[4,5-d]pyrimidin-2(1H)-one], for which the IC50 with PANC1 tumour cells was 100 to 500 nM; in the series on MC38 tumour cells, 100 to 500 nM; at SIK3, 100 to 200 nM; in the series on HCT116 tumour cells, below 100 nM; against SIK2 it was 50 to 100 nM. In addition, in the series on PANC1 tumour cells, the “sensitisation of PANC tumour cells to the cytotoxic effects of TNF compared to PY1” value is “stronger effect than PY1”. Moreover, in the series with MC38 tumour cells (in words), the “sensitisation of MC38 tumour cells to the cytotoxic effect of TNF” value was “surprisingly potent at sensitising cells to the cytotoxic effect of TNF”. Further, the “sensitisation of HCT116 tumour cells to the cytotoxic effect of TNF compared to PY1” value in the series on HCT116 tumour cells is reported as “much stronger effect compared to the prior art compound PY1”.

`COc1ccc(N2C(=O)N(c3c(CF)csc3Cl)Cc3cnc(Nc4ccc(C5CCN(C)CC5)cc4OC)nc32)cc1` [AA10, 3-(2-chloro-4-(fluoromethyl)thiophen-3-yl)-7-((2-methoxy-4-(1-methylpiperidin-4-yl)phenyl)amino)-1-(4-methoxyphenyl)-3,4-dihydropyrimido[4,5-d]pyrimidin-2(1H)-one]: the IC50 in the series with PANC1 tumour cells is 1000 to 1500 nM; in the series on MC38 tumour cells, 1000 to 1500 nM; against SIK3, 100 to 200 nM; in the series on HCT116 tumour cells, 1000 to 1500 nM; against SIK2, 50 to 100 nM.

On to `COc1ccc(N2C(=O)N(c3c(CF)csc3Cl)Cc3cnc(Nc4ccc(C5CC(C)N(C)C(C)C5)cc4)nc32)nc1` (stereo not drawn) [AA8, 3-(2-chloro-4-(fluoromethyl)thiophen-3-yl)-1-(5-methoxypyridin-2-yl)-7-((4-(l,2,6-trimethylpiperidin-4-yl)phenyl)amino)-3,4-dihydropyrimido[4,5-d]pyrimidin-2(lH)-one], for which, in the series with PANC1 tumour cells, the IC50 lay in the range of 100 to 500 nM and the “sensitisation of PANC tumour cells to the cytotoxic effects of TNF compared to PY1” value is recorded as “stronger effect than PY1”. Further, the IC50 in the series with MC38 tumour cells fell in the range of 500 to 1000 nM. Also, at SIK3, the IC50 was below 50 nM; the “inhibiting SIK3 compared to PY1” value was “superior in inhibiting SIK2 and SIK3 compared to PY1”. Besides, in the series with HCT116 tumour cells, the IC50 was below 100 nM and the “sensitisation of HCT116 tumour cells to the cytotoxic effect of TNF compared to PY1” value is “much stronger effect compared to the prior art compound PY1”. On SIK2, the IC50 is below 50 nM; the “inhibiting SIK2 compared to PY1” value was “superior in inhibiting SIK2 and SIK3 compared to PY1”.

In the case of `COc1ccc(N2C(=O)N(c3c(C)nn(C)c3C)Cc3cnc(Nc4ccc(C5CCN(C)CC5)cc4OC)nc32)nc1` [AA4, 7-((2-methoxy-4-(l-methylpiperidin-4-yl)phenyl)amino)-1-(5-methoxypyridin-2-yl)-3-(1,3,5-trimethyl-lH-pyrazol-4-yl)-3,4-dihydropyrimido[4,5-d]pyrimidin-2(1H)-one], the IC50 against SIK3 was above 10000 nM; against SIK2, 5000 to 10000 nM.
